The values that follow come from patent US5270206A, “Enzymatic resolution of endo-bicyclo[2.2.1]heptan-2-ol and derived pharmaceutical agents” (Pfizer Inc., priority 1992, dated 1993).

The subject of assay [1] is eosinophil migration into sensitized lung tissue. Put plainly: Inhibition of eosinophil migration into sensitized lung tissue challenged with antigen in guinea pigs (EPO response in lung lavage). In kind it is in vivo, guinea pig. The settings on record: Cavia porcellus, po, guinea pigs sensitized with anti-OA IgG1, dosed P.O., ovalbumin aerosol, lung lavage after 18 hours, read-out: ED50 (inhibition of specific EPO response due to antigen challenge). How it is done:
Normal Hartley guinea pigs (300-350 grams) delivered from Charles River Laboratories were housed 5-7 days before sensitization. Guinea pigs were then sensitized with 0.5 mg/kg anti-OA IgGl or saline as control. After 48-72 hours, guinea pigs were dosed P.O. in groups of six animals each with compounds at up to 32 mg/kg using 2% Tween 80 as vehicle. After 1-1.5 hours the animals were injected i.p. with 5 mg/kg pyrilamine. Thirty minutes following pyrilamine administration, animals were exposed to 10 minutes of a 0.1% ovalbumin (OA) aerosol followed by a 15 minute cloud decay period in a Tri-R Airborne Infection Apparatus (Compression air flow=20 L/min, main air flow=8.4 L/min). Guinea pigs were removed from the apparatus and caged for 18 hours prior to sacrifice and the following lung lavage procedure. […]
The aliquoted sample with Triton was diluted with 1 ml PBS/0.1% Triton buffer (pH 7.0). […] The O.D. of the mixture was measured at 490 nm, with background O.D. (blank tube) subtracted out.
Duplicate O.D. readings were averaged to obtain a single value for each animal. Average O.D. +/- standard error is calculated using the six obtained values within each group of animals. Specific EPO response due to antigen challenge is calculated by: […]
Percent inhibition of specific EPO response due to drug pretreatment is calculated by: [formula]

For assay [2], the system named is phosphodiesterases prepared from cerebral cortices of rats. The settings on record: phosphodiesterases from rat cerebral cortices; noted at page 25 of W087/06576; cited from earlier work.
For assay [3], the system named is antigen-induced skin edema. Kind of assay: Inhibition of Skin Edema in Guinea Pigs Sensitized to Ovalbumin. Conditions: 32 mg/Kg oral, two guinea pigs, intradermal ovalbumin challenge one hour after dosing, read after twenty minutes. In kind it is in vivo, guinea pig. How it is done: Four guinea pigs (Hartley, male, 350-400 g) were sensitized with anti-ovalbumin IgGI antibody. Two guinea pigs were orally dosed with 32 mg/Kg of the test compound and two other guinea pigs were dosed with vehicle (2% Tween-80). One-hour after dosing, each guinea pig was injected intraveneously with 1 ml of Evan Blue (7 mg/ml) and then his skin was challenged intradermally with 0.1 ml of ovalbumin (0.1%) or PBS. Twenty minutes after challenge, the skin was removed and skin edematous site (circular blue spots at challenge sites) was examined visually.

In another assay the target is PDEIV. Kind of assay: Inhibition of Pulmonary Phosphodiesterase (PDEIV). In kind it is biochemical. The settings on record: guinea pig lung PDEIV, 1 μM [3H]-cAMP, 37° C., 10 minutes; read-out: IC50 (concentration inhibiting 50% of specific hydrolysis of [3H]cAMP to [3H]5'AMP). The method, then: Lung tissue from guinea pigs was placed in a homogenization buffer solution (20 mM Bistris, 5 mM 2-mercaptoethanol, 2 mM benzamidine, 2 mM EDTA, 50 mM sodium acetate, pH 6.5) at a concentration of 10 ml/gm of tissue. The tissue was homogenized using a Tekmar Tissumizer at full speed for 10 seconds. Phenylmethylsulfonyl fluoride (PMSF, 50 mM in 2-propanol) was added to the buffer immediately prior to homogenization to give a final PMSF concentration of 50 μM. The homogenate was centrifuged at 12,000×g for 10 minutes at 4° C. The supernatant was filtered through gauze and glass wool and then applied to a 17×1.5 cm column of DEAE-Sepharose CL-6B, pre-equilibrated with homogenization buffer, at 4° C. A flow rate of 1 ml/min was used. After the supernatant had passed through the column, the column is washed with a volume of homogenization buffer at least two times that of the supernatant. […] Fractions were saved based on specific PDEIV activity, determined by [3H]cAMP hydrolysis and the ability of a […]. […]
The reaction tubes were shaken and placed in a water bath (37° C.) for 10 minutes, at which time the reaction was stopped by placing the tubes in a boiling water bath for 2 minutes. […] After vortexing, 1 ml of the elution was added to 3 ml Atomlight scintillation fluid in an appropriate vial, vortexed, and counted for [3H].
Percent inhibition is determined by the formula: [formula] […]

The term ED50 denotes the dose that gives a 50% effect, or the effect in half of the subjects. In the case of `COc1ccc(C2CNC(=O)NC2)cc1O[C@H]1C[C@@H]2CC[C@H]1C2` (relative stereo) [5-(3-(exo-bicyclo[2.2.1]hept-2-yloxy)-4-methoxyphenyl)-3,4,5,6-tetrahydropyrimidin-2(1H)-one], the ED50 in assay [1] was 10 mg/kg. For the same compound, in assay [2], the “in vitro activity as an inhibitor of phosphodiesterases” value is on record as “possesses in vitro activity as an inhibitor”. For the same compound, the “intensity and area of blue spots (skin edema) at antigen-challenged sites vs vehicle-dosed animals” value in assay [3] is listed as “markedly reduced”. In addition, the IC50 on PDEIV is 500 nM.
